pIC50: −log10 of the molar value.
Tests used:
[1] = tested on: Hedgehog Signaling Pathway; assay: SHH-induced differentiation of C3H10T1/2 cells into osteoblastic cells, intracellular alkaline phosphatase activity; assay type: cell-based, mouse; details: Mus musculus, C3H 10T1/2, 120 h, 10 nM SHH-N, 5 days, alkaline phosphatase activity (OD405), read-out: IC50 values of compounds that inhibit Hh pathway
Procedure: (§1) The Application of SHH to Induce Pluripotent Mesenchymal Mouse Embryonic Cell C3H10T1/2 to Differentiate into Osteoblastic Cells for the Determination of the Inhibitory Activity of N-(3-(1H-benzo[d]imidazol-2-yl)-4-chlorophenyl)-2-methyl-4-((2S,6R)-2,6-dimethylmorpholino)benzamide and Analogs on Hedgehog Signaling Pathway
The C3H10T1/2 cells were grown in DMEM medium supplemented with 10% fetal bovine serum (FBS, Hyclone) at 37° C. with 5% CO2. 10000 cells were sown to each well of a 96-well microplate a day before the experiment and grown overnight. […] The reference compound and testing compounds were serially diluted 1 to 3 and 1 to 10 in DMSO to seven concentrations with the eighth concentration being DMSO. A 10-fold dilution was prepared by mixing 10 μL of the DMSO dilutions with 90 μL of fresh growing medium. Pre-sown cells were taken out from incubator and the medium was removed. To each well, 180 μL of inducing medium containing 10 nM of SHH-N was added and followed immediately with 20 μL of 10× testing or reference compound dilutions. The testing compound concentrations are between 10 μM and 10 nM. The cells were then returned to CO2 incubator to grow additional 5 days at 37° C.
(§2) After incubating for 5 days, the cells were taken out and intracellular alkaline phosphatase activity was tested. The alkaline phosphatase activity was measured as follows:
3) Preparation of Substrate Solution:
(§3) Solution A: A 0.5 mM MgCl2 (Sigma Prod. No. M-0250) solution was prepared.
(§4) After the pH value was adjusted to 9.8 with 5 M HCl at 37° C., the total volume was adjusted to 100 mL.
(§5) After it is completely dissolved the total volume was adjusted to 10 mL with the final concentration being 1 mM.
Substrate reaction medium: to 10 mL of solution B, 250 μL of solution A and 200 μL of solution C were added, and mixed well.
4) The Measurement of Intracellular Alkaline Phosphatase Activity:
(§6) After taking out the cells from the incubator, the cell culture medium was removed and cells were washed twice with PBS. 20 μL of lysis solution (0.2% Triton solution) was added to each well. After being shaken for 30 min at room temperature, each well of cells received 80 μL of substrate reaction medium. The microplate was placed immediately into a VariSkan Flashplate reader and absorbance at OD405 was read as background reading. The plate was replaced back to cell culture incubator at 37° C. for additional 30 min and the absorbance was read again using VariSkan Flash plate reader at OD405.
(§7) The data were analyzed by subtracting the background reading from the reading at 30 min, and the obtained numbers were plotted and analyzed with Prism 5 software (GraphPad). The phosphatase activity (calculated OD405) was plotted against the log concentration of testing compound, and the obtained plot was fitted with non-linear curve fitting equation to calculate IC50 values. The curve fitting equation is Y=Bottom+(Top−Bottom)/(1+10^(X−Log IC50)). X is the logarithm of concentration. Y is the measure of alkaline phosphatase activity (OD405).
(§8) The calculated IC50 value is a measurement of the inhibitory activity of compound to Hh pathway.

[2] = tested on: Hedgehog Signaling Pathway; assay: SAG-induced differentiation of C3H10T1/2 cells into osteoblastic cells, intracellular alkaline phosphatase activity; assay type: cell-based, mouse; details: Mus musculus, C3H 10T1/2, 120 h, 1 μM SAG, 5 days, alkaline phosphatase activity (OD405), read-out: IC50 values of compounds that inhibit Hh pathway
Excerpt: as §1, with “SAG” for “SHH”, “C3H/10T1/2” for “C3H10T1/2”
The intracellular alkaline phosphatase activity is a reliable indication of the differentiation process. Therefore this enzymatic activity can be used to monitor the activity of hedgehog pathway inhibitors.
The C3H10T1/2 cells were grown in DMEM medium supplemented with 10% fetal bovine serum (FBS, Hyclone) at 37° C. with 5% CO2. 10000 cells were sown to each well of a 96-well microplate a day before the experiment and grown overnight. At the day of experiment, the inducing medium and inhibitor solutions were prepared as follows: the reference compound and testing compounds were serially diluted 1 to 3 and 1 to 10 in DMSO to seven concentrations with the eighth concentration being DMSO. A 10-fold dilution was prepared by mixing 10 μL of the DMSO dilution with 90 μL of fresh growing medium. […] Pre-sown cells were taken out from incubator and the medium was removed. To each well, 180 μL inducing medium was added and followed immediately with 20 μL of testing or reference compound dilutions. The testing compound concentrations are between 10 μM and 1 nM. The cells were then return to CO2 incubator to grow additional 5 days at 37° C.
as §2
1) Preparation of Substrate Solution:
as §3, §4, §5
Substrate reaction medium: To 10 mL of solution B, 250 μL of solution A and 200 μL of solution C were added, and mixed well.
2) the Measurement of Intracellular Alkaline Phosphatase Activity:
as §6
as §7, with “Y=Bottom+(Top−Bottom)/(1+10^((X−Log IC50))).” for “Y=Bottom+(Top−Bottom)/(1+10^(X−Log IC50)).”
as §8

pIC50 [1] | pIC50 [2] | SMILES
7.36 | 6.64 | Cc1cc(N2CCCCC2)ccc1C(=O)Nc1ccc(Cl)c(-c2nc3ccccc3[nH]2)c1 [Example 31, N-(3-(1H-benzo[d]imidazol-2-yl)-4-chlorophenyl)-2-methyl-4-(piperidin-1-yl)benzamide]
7.66 | 7.08 | C[C@@H]1CN(c2ccc(C(=O)Nc3ccc(Cl)c(-c4nc5ccccc5[nH]4)c3)c(N)c2)C[C@H](C)O1 [Example 33, N-(3-(1H-benzo[d]imidazol-2-yl)-4-chlorophenyl)-2-amino-4-((2S,6R)-2,6-dimethylmorpholino)benzamide]
6.79 | 6.58 | C[C@@H]1CN(c2ccc3c(=O)n(-c4ccc(Cl)c(-c5nc6ccccc6[nH]5)c4)cnc3c2)C[C@H](C)O1 [Example 34, 3-(3-(1H-benzo[d]imidazol-2-yl)-4-chlorophenyl)-7-((2S,6R)-2,6-dimethylmorpholino)quinazolin-4(3H)-one]
7.02 | 6.44 | C[C@@H]1CN(c2cc(Cl)c(C(=O)Nc3ccc(Cl)c(-c4nc5ccccc5[nH]4)c3)cn2)C[C@H](C)O1 [Example 36, N-(3-(1H-benzo[d]imidazol-2-yl)-4-chlorophenyl)-4-chloro-6-((2S,6R)-2,6-dimethylmorpholino)nicotinamide]
7.28 | 6.78 | Cc1cc(C(=O)Nc2ccc(Cl)c(-c3nc4ccccc4[nH]3)c2)cnc1N1C[C@@H](C)O[C@@H](C)C1 [Example 37, N-(3-(1H-benzo[d]imidazol-2-yl)-4-chlorophenyl)-5-methyl-6-((2S,6R)-2,6-dimethylmorpholino)nicotinamide]
7.89 | 7.57 | Cc1cc(-c2cccnc2)ccc1C(=O)Nc1ccc(Cl)c(-c2nc3ccccc3[nH]2)c1 [Example 40, N-(3-(1H-benzo[d]imidazol-2-yl)-4-chlorophenyl)-2-methyl-4-(pyridin-3-yl)benzamide]
7.49 | 7.00 | Cc1cc(-c2ccoc2)ccc1C(=O)Nc1ccc(Cl)c(-c2nc3ccccc3[nH]2)c1 [Example 41, N-(3-(1H-benzo[d]imidazol-2-yl)-4-chlorophenyl)-2-methyl-4-(furan-3-yl)benzamide]
6.47 | 6.64 | Cc1cc(-c2ccsc2)ccc1C(=O)Nc1ccc(Cl)c(-c2nc3ccccc3[nH]2)c1 [Example 42, N-(3-(1H-benzo[d]imidazol-2-yl)-4-chlorophenyl)-2-methyl-4-(thiophen-3-yl)benzamide]
7.74 | 6.86 | O=C(Nc1ccc(Cl)c(-c2nc3ccccc3[nH]2)c1)C1CCC(c2ccccc2)CC1 (stereo not shown) [Example 44, N-(3-(1H-benzo[d]imidazol-2-yl)-4-chlorophenyl)-4-phenylcyclohexanecarboxamide]
7.70 | 6.55 | Cc1cc(-c2ccc(C(F)(F)F)cc2)ccc1C(=O)Nc1cccc(-c2nc3ccccc3[nH]2)c1 [Example 45, N-(3-(1H-benzo[d]imidazol-2-yl)phenyl)-3-methyl-4′-(trifluoromethyl)biphenyl-4-carboxamide]
< 5.00 | < 5.00 | Cc1cc(-c2ccc(C(F)(F)F)cc2)ccc1C(=O)N(C)c1ccc(Cl)c(-c2nc3ccccc3[nH]2)c1 [Example 48, N-(3-(1H-benzo[d]imidazol-2-yl)-4-chlorophenyl)-N,3-dimethyl-4′-(trifluoromethyl)biphenyl-4-carboxamide]
7.11 | < 5.00 | Cc1cc(-c2ccc(C(F)(F)F)cc2)ccc1C(=O)Nc1ccc(Cl)c(-c2ncc(-c3cccnc3)[nH]2)c1 [Example 51, N-(3-(5-(pyridin-3-yl)-1H-imidazol-2-yl)-4-chlorophenyl)-3-methyl-4′-(trifluoromethyl)biphenyl-4-carboxamide]
6.33 | 6.13 | Cc1cc(-c2ccc(C(F)(F)F)cc2)ccc1C(=O)Nc1ccc(Cl)c(-c2nnc3ccccn23)c1 [Example 52, N-(3-([1,2,4]triazolo[4,3-a]pyridin-3-yl)-4-chlorophenyl)-3-methyl-4′-(trifluoromethyl)biphenyl-4-carboxamide]
< 5.00 | < 5.00 | Cc1cc(-c2ccc(C(F)(F)F)cc2)ccc1C(=O)Nc1ccc(Cl)c(-c2nnc3ncccn23)c1 [Example 53, N-(3-([1,2,4]triazolo[4,3-a]pyrimidin-3-yl)-4-chlorophenyl)-3-methyl-4′-(trifluoromethyl)biphenyl-4-carboxamide]
< 5.00 | < 5.00 | Cc1cc(-c2ccc(C(F)(F)F)cc2)ccc1C(=O)Nc1ccc(Cl)c(-c2nnc3cnccn23)c1 [Example 54, N-(3-([1,2,4]triazolo[4,3-a]pyrazin-3-yl)-4-chlorophenyl)-3-methyl-4′-(trifluoromethyl)biphenyl-4-carboxamide]
< 5.00 | < 5.00 | Cc1cc(-c2ccc(C(F)(F)F)cc2)ccc1C(=O)Nc1cccc(-c2cn3cccnc3n2)c1 [Example 55, N-(3-(imidazo[1,2-a]pyrimidin-2-yl)phenyl)-3-methyl-4′-(trifluoromethyl)biphenyl-4-carboxamide]
6.72 | 5.63 | Cc1cc(-c2ccc(C(F)(F)F)cc2)ccc1C(=O)Nc1cccc(-c2cn3ccccc3n2)c1 [Example 56, N-(3-(imidazo[1,2-a]pyridin-2-yl)phenyl)-3-methyl-4′-(trifluoromethyl)biphenyl-4-carboxamide]
< 5.00 | < 5.00 | C[C@@H]1CN(c2ccc(C(=O)Nc3cccc(-c4cn5cccnc5n4)c3)cn2)C[C@H](C)O1 [Example 57, N-(3-(imidazo[1,2-a]pyrimidin-2-yl)phenyl)-6-((2S,6R)-2,6-dimethylmorpholino)nicotinamide]
< 5.00 | < 5.00 | C[C@@H]1CN(c2ccc(C(=O)Nc3ccc(Cl)c(-c4nnc5cnccn45)c3)cn2)C[C@H](C)O1 [Example 58, N-(3-([1,2,4]triazolo[4,3-a]pyrazin-3-yl)-4-chlorophenyl)-6-((2S,6R)-2,6-dimethylmorpholino)nicotinamide]
< 5.00 | < 5.00 | Cc1cc(-c2ccc(C(F)(F)F)cc2)ccc1C(=O)Nc1cc(-c2nc3ccccc3[nH]2)ccn1 [Example 61, N-(4-(1H-benzo[d]imidazol-2-yl)pyridin-2-yl)-3-methyl-4′-(trifluoromethyl)biphenyl-4-carboxamide]
